According to patent US9040568B2, “Pharmaceutical compositions for the treatment of pain” (AbbVie Inc., priority 2009, dated 2015):
Counter-ions that a name gives are not always drawn. Values belong to the compound of their own block, whether it stands above or below them.

Experiments:
[1] = molecular target: T1, α4β2nAChR modulator site (Homo sapiens, UniProt P17787+P43681); assay: [^3H]-POB binding, membrane enriched fractions from human cortex; details: saturation binding, human frontal cortex membranes, 4° C.
T1 construct: membrane enriched fractions from human cortex (ABS Inc., Wilmington, Del.); tissue ABS Inc., Wilmington, Del; host or cells: human cortex (frontal cortex) membrane enriched fractions
T1 sequence (P43681 29-627 limits assumed): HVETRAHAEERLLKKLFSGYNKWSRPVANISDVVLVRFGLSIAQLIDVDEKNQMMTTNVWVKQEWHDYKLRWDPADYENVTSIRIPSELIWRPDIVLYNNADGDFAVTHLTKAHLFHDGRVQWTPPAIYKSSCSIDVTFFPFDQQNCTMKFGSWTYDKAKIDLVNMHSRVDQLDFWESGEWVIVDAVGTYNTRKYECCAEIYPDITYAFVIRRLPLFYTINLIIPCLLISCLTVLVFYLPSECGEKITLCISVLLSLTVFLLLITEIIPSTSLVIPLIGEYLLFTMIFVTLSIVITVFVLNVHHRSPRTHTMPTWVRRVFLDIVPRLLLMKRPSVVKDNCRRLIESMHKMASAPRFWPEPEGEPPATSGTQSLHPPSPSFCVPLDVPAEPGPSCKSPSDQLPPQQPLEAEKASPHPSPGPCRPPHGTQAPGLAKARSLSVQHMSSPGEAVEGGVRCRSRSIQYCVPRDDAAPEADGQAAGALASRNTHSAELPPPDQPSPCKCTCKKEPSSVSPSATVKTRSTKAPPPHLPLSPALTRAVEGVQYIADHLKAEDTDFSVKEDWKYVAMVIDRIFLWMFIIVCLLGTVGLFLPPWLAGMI
T1 sequence (P17787 26-502): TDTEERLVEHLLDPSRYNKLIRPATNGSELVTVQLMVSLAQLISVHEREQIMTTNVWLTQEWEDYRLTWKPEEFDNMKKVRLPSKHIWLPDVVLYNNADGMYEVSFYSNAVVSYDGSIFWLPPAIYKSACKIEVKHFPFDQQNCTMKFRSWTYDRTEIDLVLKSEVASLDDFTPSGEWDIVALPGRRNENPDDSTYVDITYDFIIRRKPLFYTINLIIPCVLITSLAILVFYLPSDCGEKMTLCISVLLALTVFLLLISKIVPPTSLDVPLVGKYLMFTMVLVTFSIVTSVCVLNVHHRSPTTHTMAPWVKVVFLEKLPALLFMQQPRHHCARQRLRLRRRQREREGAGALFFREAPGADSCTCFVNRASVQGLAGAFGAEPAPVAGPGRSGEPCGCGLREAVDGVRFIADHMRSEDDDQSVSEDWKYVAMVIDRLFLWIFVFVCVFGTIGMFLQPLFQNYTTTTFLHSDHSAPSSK
Protocol: In addition to the assays previously described for assessing nicotinic acetylcholine receptor positive allosteric modulators (fluoroscence-based measurements, electrophysiology measurements using Xenopus oocytes or cell lines), the receptor interactions of positive allosteric modulators at α4β2 nAChRs also can be evaluated according to the [^3H]-POB binding assay, which was performed as described below.
[^3H]-POB ([^3H]-3-(5-(pyridin-3-yl)-1,2,4-oxadiazol-3-yl)benzonitrile) binding to a α4β2nAChR modulator site was determined using membrane enriched fractions from human cortex (ABS Inc., Wilmington, Del.). […] Non-specific binding was determined in the presence of 30 μM unlabeled 3-(5-(pyridin-3-yl)-1,2,4-oxadiazol-3-yl)benzonitrile. Under these conditions, saturable binding of [^3H]-POB binding was measured in membrane enriched fractions from human frontal cortex (FIG. 10). […]
For use in concentration-inhibition assays, seven log-dilution concentrations of test compounds containing […] of protein, and 50 nM [^3H]-POB (16.4 Ci/mmol) were incubated in a final volume of 500 μL for 75 minutes at 4° C. in duplicate. Non-specific binding was determined in the presence of 30 μM 3-(5-(pyridin-3-yl)-1,2,4-oxadiazol-3-yl)benzonitrile. […] IC50 values were determined by nonlinear regression in Microsoft® Excel or Assay Explorer. […]

[2] = molecular target: α4β2 nAChR (UniProt P09483+P12390); assay: [^3H]-cytisine binding assay
Excerpt: One manner for characterizing α4β2 receptor ligands is by a binding assay. […] The [^3H]-cytisine binding assays have been well reported; however, further details for carrying out the assays can be obtained in International Publication No. WO 99/32480; U.S. Pat. Nos. 5,948,793 and 5,914,328; WO 2004/018607; U.S. Pat. No. 6,809,105; WO 00/71534; and U.S. Pat. No. 6,833,370.

[3] = molecular target: T2, human α4β2 nicotinic acetylcholine receptor subtype expressed in HEK-293 cells (Homo sapiens, UniProt P17787+P43681); assay: Calcium flux assay (FLIPR) in HEK-293 cells expressing human α4β2; assay type: cell-based
T2 construct: expressed in transfected cells
T2 sequence (P43681 29-627 limits assumed): as the sequence (P43681 29-627 limits assumed) above
T2 sequence (P17787 26-502): as the sequence (P17787 26-502) above
Protocol: Calcium Flux Assays Using Cells Expressing nAChR Subtypes
Human embryonic kidney (HEK) 293 cells stably expressing human α4β2 or α3β4 combinations are grown to confluency in 162 cm^2 tissue culture flasks in DMEM media supplemented with 10% FBS and 25 μg/ml zeocin and 200 μg/ml hygromycin B. IMR-32 neuroblastoma cells (ATCC) are grown to confluency in 162 cm^2 tissue culture flasks in minimum essential media supplemented with 10% FBS and 1 mM sodium pyruvate, 1% non-essential amino acids and 1% antibiotic-antimycotic. The cells are then dissociated using cell dissociation buffer and 100-150 μl per well of 3.5×10^5 cells/ml cell suspension (˜50,000-100,000 cells/well) was plated into 96-well black plates (poly-D-lysine precoated) with clear bottom and maintained for 24-48 hours in a tissue culture incubator at 37° C. under an atmosphere of 5% CO2: 95% air. Other clonal cell lines or primary cell cultures that express endogenous α4* nicotinic receptors may also be used in this assay. Calcium flux was measured using calcium-3 assay kit (Molecular Devices, Sunnyvale, Calif.) or fluo-4 (Invitrogen). A stock solution of the dye was prepared by dissolving each vial supplied by the vendor in Hank's balanced salt solution buffer (HBSS) or 150 mM NMDG, 20 mM CaCl2 containing 10 mM HEPES, The stock solution was diluted 1:20 using the same buffer before use. The growth media was removed from the cells. The cells were loaded with 100 μl of the dye per well and incubated at room temperature for up to one hour for HEK 293 clonal stable cell lines or 30 minutes-45 minutes at 37° C. for IMR-32 cells Fluorescence measurements were read simultaneously from all the wells by a Fluorometic Imaging Plate Reader (FLIPR) at an excitation wavelength of 480 nm and an emission wavelength of 520 nm. Baseline fluorescence was measured for the first 6 seconds at which 3× concentrations of modulator/test compounds were added to the cell plate at 50 μl and incubated for five minutes. The fluorescence intensity was captured every second for the first 1 minute followed by every 5 seconds for an additional 4 minutes. This procedure was followed by 50 μl of 4× concentration of agonist and readings were taken for a period of 3-5 minutes as described above. Data was normalized to maximal responses and plotted as a function of concentration. The concentration dependence of changes fluorescence responses was fitted by nonlinear regression analysis (GraphPad Prism, San Diego, Calif.) to obtain EC50 values.
The positive allosteric modulator effects on α4β2nAChRs exemplified by 3-(3-pyridin-3-yl-1,2,4-oxadiazol-5-yl)benzonitrile (Compound 1) and 3,5-di(pyridin-3-yl)-1,2,4-oxadiazole (Compound 2) can be identified by measuring their potentiating effect to fluorescence changes in intracellular calcium using a fluorimetric plate reader. The potentiating effect of an α4β2 modulator on α4β2 receptor can also be illustrated by concentration responses to α4β2 agonists, for example 5-[(2R)-azetidin-2-ylmethoxy]-2-chloropyridine (Compound A) and (3R)-1-pyridin-3-ylpyrrolidin-3-amine (Compound B), in presence of a fixed concentration of PAM. […] In addition to compound A and B, other known nicotinic agonists can be left-shifted in presence of α4β2 PAM such as 3-(3-(pyridin-3-yl)-1,2,4-oxadiazol-5-yl)benzonitrile (Compound 1, FIG. 2C). […]

[4] = system: nerve injury induced mechanical allodynia; assay: Chung model of neuropathic pain (L5-L6 spinal nerve ligation, tactile allodynia, von Frey); assay type: in vivo, rat
Protocol: To assess whether α4β2 PAM can increase antinociceptive responses of agonists in vivo, the following study was conducted. The materials and methods used to accomplish the study follow.
Male Sprague-Dawley rats (Charles River, Wilmington, Mass.) weighing 120-150 grams at time of surgery were utilized. These animals were group housed in AAALAC approved facilities at Abbott Laboratories in a temperature-regulated environment with lights on between 0700 and 2000 hours. Food and water was available ad libitum except during testing. All animal handling and experimental protocols were approved by an institutional animal care and use committee (IACUC). All experiments were performed during the light cycle.
5[(2R)-Azetidin-2-ylmethoxy]-2-chloropyridine (Compound A, 1-100 nmol/kg) and 3-(3-pyridin-3-yl)-1,2,4-oxadiazol-5-yl)benzonitrile (α4β2 PAM Compound 1, 1-35 μmol/kg, i.p.) was used. Compound A and D was prepared in saline and injected in solution in a volume of 2 ml/kg body weight 30 minutes before behavioral evaluation. Compound 1,3-(3-(pyridin-3-yl)-1,2,4-oxadiazol-5-yl)benzonitrile, was prepared in 30% hydroxybetacyclodextrin and injected in solution in a volume of 4 ml/kg body weight immediately before Compound A. For studies with Compound D, the doses tested ranged from 0.3-30 μmol/kg i.p.
To produce neuropathic pain, tight ligation of the L5-L6 spinal nerves was performed. As previously described in detail by Kim and Chung (Kim S H and Chung J M (1992), Pain 50: 355), following sterilization procedures, a 1.5 cm incision was made dorsal to the lumbosacral plexus. The paraspinal muscles (left side) were separated from the spinous processes, the L5 and L6 spinal nerves isolated, and tightly ligated with 3-0 silk thread. Following hemostasis, the wound was sutured and coated with antibiotic ointment. The rats were allowed to recover and then placed in a cage with soft bedding for 7-14 days before behavioral testing for mechanical allodynia.
Tactile allodynia was measured using calibrated (force; g) von Frey filaments (Stoelting, Wood Dale, Ill.). Briefly, rats were placed into individual plexiglass containers and allowed to acclimate for 15-20 minutes before testing. Withdrawal threshold was determined by increasing and decreasing stimulus intensity and estimated using a Dixon non-parametric test (Chaplan et al., 1994; Chaplan S R, Bach F W, Pogrel J W, Chung J M and Yaksh T L (1994) J Neurosci Methods 53:55-63). Only rats with threshold scores<4.5 g were considered allodynic and utilized in further testing. A percent of maximal possible effect (% M.P.E.) of the tested compounds was calculated according to the formula: ([post-drug threshold]-[baseline threshold])/([maximum threshold]-[baseline threshold])×100%, where maximum threshold was equal to 15 g.
Analysis of the in vivo data was carried out using analysis of variance. Where appropriate, Bonferroni's Multiple Comparison Test was used for post-hoc analysis. The level of significance was set at p less than 0.05. Data are presented as mean±S.E.M.

[5] = co-applied with the PAM Compound 1, α4β2 nAChRs

Bmax [1]: 2900±500 fmol/mg protein
Compound: [3H]c1cncc(-c2nc(-c3cccc(C#N)c3)no2)c1 [[^3H]-POB, [^3H]-3-(5-(pyridin-3-yl)-1,2,4-oxadiazol-3-yl)benzonitrile]

Compound: c1ccc2ncc(N3C[C@@H]4CN[C@@H]4C3)cc2c1 [Compound D, (1S,5S)-3-(3,6-diaza-bicyclo[3.2.0]hept-3-yl)-quinoline]
Ki [2]: 6 nM
calcium response [3, 5]: evoked robust responses
calcium response ([3]; ligand alone, α4β2 nAChRs): does not evoke a response
efficacy in neuropathic pain ([4]; administered alone): ineffective in reversing neuropathic pain
efficacy in neuropathic pain ([4]; combined with the PAM (Compound 1)): significant efficacy can be realized

Compound: Fc1ccc(-c2nc(-c3cncnc3)no2)cc1F [Example 101, 5-(3,4-difluorophenyl)-3-(pyrimidin-5-yl)-1,2,4-oxadiazole tosylate]
Activity (allosteric effects-potentiation of fluorescence responses) [3]: a (“a” denotes as activity range from 200-400%)

calcium response [3, 5]: evoked robust responses
calcium response ([3]; ligand alone, α4β2 nAChRs): does not evoke a calcium response
Compound: Cc1ncccc1OC[C@@H]1CCCN1 [Compound C, 2-methyl-3-(2-(S)-pyrrolidinylmethoxy)pyridine]
